Assay results: paper PMC8601123, “Drug delivery, biodistribution and anti-EGFR activity: theragnostic nanoparticles for simultaneous in vivo delivery of tyrosine kinase inhibitors and kinase activity biosensors” (Nanoscale, 2021)

How the values were obtained:
[1] = test system: EGFR; assay: EGFR activation by EGF in SW48 cells, western blot; type: cell-based; conditions: serum-free 24 h, 1 h pre-treatment, EGF 100 ng/mL 5 min, western blot (Fig. S1)
Description: To test the ability of lipopolyplexes to deliver pDNA and inhibitor we used LIM1215 colon cancer cells. […] As a control, to check the response of the colorectal cancer cell lines to this class of TKI, we prepared an analogue of 1, with the disulfide-linked peptide replaced with an –OMe group. TKI analogue MeO-[PEG6-IPQA]
Optimization of EGFR inhibitor delivery to target cells
Figure S1. Effect of MeO-[PEG6-IPQA] (8) on EGFR activation by EGF in SW48 cells.
Cells were seeded in 6-well plate, 48 h later media was changed for media without serum. 24 h later cells were pre-treated with MeO-[PEG6-IPQA] (8) at indicated concentrations for 1 h followed by treatment with EGF (100 ng/mL) for 5 min. Cells were lysed and subjected to western blot analysis for activation/phosphorylation of EGFR and downstream signalling […]
(1 picture or pasted object on this page, not shown here)

[2] = biological target: T1, EGFR (Homo sapiens, UniProt P00533); assay: FRET-FLIM analysis of EGF-induced EGFR activity with Picchu-X biosensor in cells; type: cell-based; set-up: inhibition of EGF-induced EGFR activity (FRET-FLIM), difference between the groups: dose or concentration left out as unconfirmed
T1 construct: endogenous in cells; host or cells: LIM1215 colon cancer cells
Excerpt: We then prepared variant lipopolyplex formulations, based on CLA1 and including the EGFR inhibitor K16Cys-S-S-[PEG6-IPQA] 1 (Table 1). […] For efficient perfusion through the leaky endothelial cells of the tumor, lipopolyplexes must be <150 nm in diameter. […] We also carried out in vitro studies to check that the disulfide linker between K16Cys and PEG-IPQA was labile under pseudo-intracellular conditions (GSH/GSSG, HEPES, pH 7.2).[66] […] Next, we assessed the effectiveness of K16Cys-S-S-[PEG6-IPQA] 1 as an inhibitor of EGFR activity as a free therapeutic or within lipopolyplexes by utilizing FRET-FLIM and validating our results by western blot (WB) techniques. […]
A10 μM solution of the non-radiolabelled F1LA1 K16Cys-S-S-[PEG6-IPQA] lipopolyplex was applied to cells at 60% confluence in 96-well-plates. […] Time-domain fluorescence lifetime images were acquired via time correlated single photon counting (TCSPC) at a resolution of 256 by 256 pixels, with 256 time bins and 100 frames accumulated over 300 seconds, via excitation and emission filters suitable for the detection of GFP fluorescence (Excitation filter: Semrock FF01-470/22 nm; Beam Splitter: Edmund 48NT-392 30R/70 T; Emission filter: Semrock FF01-510/20 nm). […]

[3] = biological target: T1, EGFR; assay: Western blot of EGFR phosphorylation, time course of inhibitory effect; type: cell-based; conditions: for duration of EGFR inhibition: western blot (Fig. 2d)
Excerpt: (§1) We then prepared variant lipopolyplex formulations, based on CLA1 and including the EGFR inhibitor K16Cys-S-S-[PEG6-IPQA] 1 (Table 1). […] For efficient perfusion through the leaky endothelial cells of the tumor, lipopolyplexes must be <150 nm in diameter. […] We also carried out in vitro studies to check that the disulfide linker between K16Cys and PEG-IPQA was labile under pseudo-intracellular conditions (GSH/GSSG, HEPES, pH 7.2).[66] […] Next, we assessed the effectiveness of K16Cys-S-S-[PEG6-IPQA] 1 as an inhibitor of EGFR activity as a free therapeutic or within lipopolyplexes by utilizing FRET-FLIM and validating our results by western blot (WB) techniques. Activation of EGFR in cells treated with EGF (natural ligand for EGFR) was evident by decreasing lifetime of green fluorescent protein (GFP) in Picchu-X biosensor (Fig. 2c) and by appearance of phosphorylated EGFR band in WB image (Fig. 2d). In both cases pre-treatment with MeO-[PEG6-IPQA]
Fig. 2 Effect of different lipopolyplex formulations and drug loading on the expression of EGFR in targeted cells and inhibition of its activity upon stimulation with EGF. LIM1215 cells transfected with different lipopolyplexes without inhibitor (CLA1–4, NAE1–4, NGE1–4) (a) or with increasing amount of inhibitor per particle (F1LA1–3, F2LA1–3) (b) 24 h after seeding.
LIM1215, DiFi, SW48 and DLD1 colon cancer cell lines (independently validated by STR DNA fingerprinting at The Institute of Cancer Research (London, UK), were maintained in RPMI-1640 (Life Technologies Ltd). Antibodies: anti-EGFR (clone D38B1) anti-p-Y1173-EGFR (clone 53A5) were from Cell Signaling Technology Ltd.

[4] = test system: LIM1215 xenografts; assay: In vivo radioactive organ biodistribution in LIM1215 xenograft mice; set-up: species or system CD1 nu/nu mice
Description: Fig. 3 In vivo radioactive organ biodistribution data presented in % Injected Dose per gram (%ID g^−1) for MeO-[PEG6-[^125I]-IPQA] 8 (black columns) and F1LA1 K16Cys-SMal-[PEG3-[^125I]-IPQA] 9 lipopolyplex (grey columns) 3, 6 and 24 h after injection. The tumor %ID g^−1 at 3, 6 and 24 h for both tracers is represented on a separate graph.
All animal studies were approved by the University College London Biological Services Ethical Review Committee and licensed under the UK Home Office regulations and the Guidance for the Operation of Animals (Scientific Procedures) Act 1986 (Home Office, London, United Kingdom). 12 female 6–8 weeks old CD1 nu/nu mice (Charles River Laboratories, UK) were injected subcutaneously in the right flank with 2 × 10^6 LIM1215 cells in 100 μL PBS. Once palpable tumors were measure in three orthogonal directions using the following equation: length × height × width × π/6. Once tumors had reached approximately 70–100 mm^3 mice were randomly divided into 2 groups; group 1 received an intravenous injection of 0.5Mbq MeO-[PEG6-[^125I]-IPQA] 8 (n = 6), group 2 received an intravenous injection of 0.5MBq F1LA1 K16Cys-SMal-[PEG3-[^125I]-IPQA]-lipopolyplex (n = 6). Mice were then culled at 3, 6 and 24 hours (n = 2 per time point) and all organs were taken, weighed and ^125I uptake quantified using a gamma counter (Wizard, PerkinElmer) to obtain % Injected dose per gram (%ID g^−1).

[5] = cited from earlier work
Excerpt: This approach also allowed us to further investigate the basis for the enhanced circulation and better tumour selectivity afforded by nanoparticle delivery of small molecule therapeutics. […] This phenomenon will need further investigation of potential differences in trafficking of the drug within the cell post-uptake, both in terms of the subcellular compartments involved and kinetics of intracellu ...

[6] = Cleavage of the disulfide linker under pseudo-intracellular conditions; type: physicochemical; conditions: reducing pseudo-intracellular conditions, GSH/GSSG, HEPES, pH 7.2 (Fig. S7)
Excerpt: as §1

C=CC(=O)Nc1cc2c(Nc3cccc(I)c3)ncnc2cc1OCCOCCOCCOCCOCCOCCOC [Compound 8, MeO-[PEG6-IPQA]]
inhibition of EGFR activation by EGF [1]: potent inhibitor of EGFR activation
lifetime of GFP in Picchu-X biosensor after EGF ([2]; pre-treatment for 1 h, then EGF (Fig. 2c)): remained at baseline levels
duration of EGFR inhibition ([3]; free agent): 24 h
level of EGFR phosphorylation ([3]; pre-treatment for 1 h, EGF stimulation, western blot (Fig. 2d, line 8 vs. line 2)): significantly lower than in the sample without inhibitor
organ uptake ([4]; i.v. 0.5 MBq, 3, 6 and 24 h, 125I gamma counting, %ID g-1 (Fig. 3)): high uptake in gallbladder and intestines at 3 and 6 h
clearance route ([4]; i.v. 0.5 MBq, 125I gamma counting, n = 2 per time point): rapidly cleared via the hepatobiliary route
time of highest tumor uptake ([4]; i.v. 0.5 MBq, time points 3, 6 and 24 h, gradual reduction over 24 h): 3 h

C=CC(=O)Nc1cc2c(Nc3cccc(I)c3)ncnc2cc1OCCOCCOCCOCCOCCOCCF [[^18F]F-PEG6-IPQA]
selectivity for tumour cells [5]: little selectivity for tumour cells
in vivo clearance ([5]; compared with Mo-IPQA): quicker in vivo clearance

K16Cys-S-S-[PEG6-IPQA] [Compound 1]
time to cleavage of disulfide linkage [6]: ≤ 5 min
inhibition of EGF-induced EGFR activity (FRET-FLIM), difference between the groups ([2]; free agent, P = 0.03 (Fig. 2c legend)): statistically significant
duration of EGFR inhibition ([3]; delivered within lipopolyplexes): up to 48 h
EGFR activity, inhibitor within lipopolyplexes ([3]; delivered within lipopolyplexes, western blot (Fig. 2d, lines 3-7 vs. line 2)): equally low levels as the free drug
